Measured values from patent publication US9302999B2, “Substituted triazoles as herbicides” (E. I. DU PONT DE NEMOURS AND COMPANY, priority 2012, dated 2016).

Tests used:
Format in all cases: in vivo
[1] = system: smartweed (ladysthumb smartweed, Polygonum persicaria); assay: Test E pre-/postemergence: smartweed; conditions: Postemergence, scale 0 to 100
Description: Seeds of plant species selected from corn (Zea mays), soybean (Glycine max), velvetleaf (Abutilon theophrasti), lambsquarters (Chenopodium album), poinsettia, wild (wild poinsettia, Euphorbia heterophylla), pigweed, palmer (palmer pigweed, Amaranthus palmeri), waterhemp (common waterhemp, Amaranthus rudis), smartweed (ladysthumb smartweed, Polygonum persicaria), surinam grass (Brachiaria decumbens), crabgrass, large (large crabgrass, Digitaria sanguinalis), crabgrass, Brazil (Brazilian crabgrass, Digitaria horizontalis), panicum, fall (fall panicum, Panicum dichotomiflorum), foxtail, giant (giant foxtail, Setaria faberii), foxtail, green (green foxtail, Setaria viridis), goosegrass (Eleusine indica), johnsongrass (Sorghum halepense), ragweed (common ragweed, Ambrosia elation), barnyardgrass (Echinochloa crus-galli), sandbur (southern sandbur, Cenchrus echinatus), arrowleaf sida (Sida rhombifolia), ryegrass, Italian (Italian ryegrass, Lolium multiflorum), dayflower, (VA) (Virginia dayflower, Commelina virginica), field bindweed (Convolvulus arvensis), cocklebur (common cocklebur, Xanthium strumarium), morningglory (Ipomoea coccinea), nightshade (eastern black nightshade, Solanum ptycanthum), kochia (Kochia scoparia), nutsedge, yellow (yellow nutsedge, Cyperus esculentus) and beggarticks (hairy beggarticks, Bidens pilosa) were planted into a silt loam soil and treated preemergence with test chemicals formulated in a non-phytotoxic solvent mixture which included a surfactant. At the same time, plants selected from these crop and weed species were planted in pots containing a growing medium comprising spaghnum peat moss, vermiculite, wetting agent and starter nutrients and treated with postemergence applications of some of the test chemicals formulated in the same manner. Plants ranged in height from 2 to 18 cm for postemergence treatments (1- to 4-leaf stage).
Treated plants and controls were maintained in a greenhouse for 14 to 21 days, after which time all species were compared to controls and visually evaluated. Plant response ratings, summarized in Table E, are based on a scale of 0 to 100 where 0 is no effect and 100 is complete control. A dash (-) response means no test result.

[2] = system: wheat (TRZAW, Triticum aestivum); assay: Test H post-emergence, alone and in combination: wheat
Description: (§1) Seeds of plant species selected from wheat (TRZAW, Triticum aestivum), barley (HORBW, Hordeum vulgare), Kochia (KCHSC, Kochia caoparia) blackgrass (ALOMY, Alopecurus myosuroides), canarygrass (PHAMI, Phalaris minor), Italian ryegrass (LOLMU, Lolium multiflorum) common lambsquarter (CHEAL, Chenopodium album), pigweed (AMARE, Amaranthus retroflexus), Common Chickweed (STEME, Stellaria media), Russian thistle (SASKR, Salsola iberica), Wild Buckwheat (POLCO, Polygonum convolvulus), Catchweed Bedstraw (GALAP, Galium aparine), Mustard (SINAR, Sinapisar arvensis), Henbit Deadnettle (LAMAM, Lamium amplexicaule), Wild Radish (RAPRA, Raphanus raphanistrum), Field Poppy (PAPRH, Papaver rhoeas), Field Violet (VIOAR, Viola arvennsis), Scentless Chamomile (MATIN Matricaria inodora) were planted into soil and treated post-emergence with test chemicals formulated in a non-phytotoxic solvent mixture. Plants were grown in a greenhouse using supplemental lighting to maintain a photoperiod of approximately 14 hours; daytime and nighttime temperatures were approximately 23°-29° and 16°-19° Celsius, respectively. Balanced fertilizer was applied through the watering system. Treated plants and controls were maintained in a greenhouse for 20 days, after which time all species were compared to controls and visually evaluated. Plant response ratings were calculated as the mean of three replicates (unless otherwise indicated), are summarized in Table G, and are based on a scale of 0 to 100 where 0 is no effect and 100 is complete control. A dash (-) response means no test result.

[3] = system: barley (HORBW, Hordeum vulgare); assay: Test H post-emergence, alone and in combination: barley
Description: as §1

[4] = system: Kochia (KCHSC, Kochia caoparia); assay: Test H post-emergence, alone and in combination: Kochia
Description: as §1

[5] = system: blackgrass (ALOMY, Alopecurus myosuroides); assay: Test H post-emergence, alone and in combination: blackgrass
Description: as §1

[6] = system: canarygrass (PHAMI, Phalaris minor); assay: Test H post-emergence, alone and in combination: canarygrass
Description: as §1

[7] = system: common lambsquarter (CHEAL, Chenopodium album); assay: Test H post-emergence, alone and in combination: common lambsquarter
Description: as §1

[8] = system: pigweed (AMARE, Amaranthus retroflexus); assay: Test H post-emergence, alone and in combination: pigweed
Description: as §1

[9] = system: Common Chickweed (STEME, Stellaria media); assay: Test H post-emergence, alone and in combination: Common Chickweed
Description: as §1

[10] = system: Russian thistle (SASKR, Salsola iberica); assay: Test H post-emergence, alone and in combination: Russian thistle
Description: as §1

[11] = system: Catchweed Bedstraw (GALAP, Galium aparine); assay: Test H post-emergence, alone and in combination: Catchweed Bedstraw
Description: as §1

[12] = system: Mustard (SINAR, Sinapisar arvensis); assay: Test H post-emergence, alone and in combination: Mustard
Description: as §1

[13] = system: Henbit Deadnettle (LAMAM, Lamium amplexicaule); assay: Test H post-emergence, alone and in combination: Henbit Deadnettle
Description: as §1

[14] = system: Wild Radish (RAPRA, Raphanus raphanistrum); assay: Test H post-emergence, alone and in combination: Wild Radish
Description: as §1

[15] = system: Field Poppy (PAPRH, Papaver rhoeas); assay: Test H post-emergence, alone and in combination: Field Poppy
Description: as §1

[16] = system: Field Violet (VIOAR, Viola arvennsis); assay: Test H post-emergence, alone and in combination: Field Violet
Description: as §1

[17] = system: Scentless Chamomile (MATIN Matricaria inodora); assay: Test H post-emergence, alone and in combination: Scentless Chamomile
Description: as §1

Cc1nn(-c2ccc(C(F)(F)F)cc2)nc1Cc1ccnc(C(F)(F)F)c1 [Compound 47, 4-[[5-methyl-2-[4-(trifluoromethyl)phenyl]-2H-1,2,3-triazol-4-yl]methyl]-2-(trifluoromethyl)pyridine]
Plant response rating: Smartweed ([1]; 250 g ai/ha): 85 | Plant response rating: Smartweed ([1]; 16 g ai/ha): 30 | Plant response rating: Smartweed ([1]; 31 g ai/ha): 40 | Plant response rating: Smartweed ([1]; 62 g ai/ha): 50 | Plant response rating: Smartweed ([1]; 125 g ai/ha): 80

Cc1nn(-c2ccc(F)cc2)nc1Oc1ccnc(C(F)(F)F)c1 [Compound 129, 4-[[2-(4-fluorophenyl)-5-methyl-2H-1,2,3-triazol-4-yl]oxy]-2-(trifluoromethyl)pyridine]
TRZAW plant response ([2]; Rate 31): 10 | TRZAW plant response ([2]; Rate 62): 15 | TRZAW plant response ([2]; Rate 125): 15 | HORBW plant response ([3]; Rate 31): 10 | HORBW plant response ([3]; Rate 62): 15 | HORBW plant response ([3]; Rate 125): 15 | KCHSC plant response ([4]; Rate 31): 80 | KCHSC plant response ([4]; Rate 62): 85 | KCHSC plant response ([4]; Rate 125): 95 | ALOMY plant response ([5]; Rate 31): 5 | ALOMY plant response ([5]; Rate 62): 10 | ALOMY plant response ([5]; Rate 125): 30 | PHAMI plant response ([6]; Rate 31): 15 | PHAMI plant response ([6]; Rate 62): 20 | PHAMI plant response ([6]; Rate 125): 60 | CHEAL plant response ([7]; Rate 31): 85 | CHEAL plant response ([7]; Rate 62): 80 | CHEAL plant response ([7]; Rate 125): 90 | AMARI plant response ([8]; Rate 31): 80 | AMARI plant response ([8]; Rate 62): 90 | AMARI plant response ([8]; Rate 125): 95 | STEME plant response ([9]; Rate 31): 50 | STEME plant response ([9]; Rate 62): 70 | STEME plant response ([9]; Rate 125): 80 | SASKR plant response ([10]; Rate 31): 65 | SASKR plant response ([10]; Rate 62): 80 | SASKR plant response ([10]; Rate 125): 90 | GALAP plant response ([11]; Rate 31): 65 | GALAP plant response ([11]; Rate 62): 60 | GALAP plant response ([11]; Rate 125): 70 | SINAR plant response ([12]; Rate 31): 80 | SINAR plant response ([12]; Rate 62): 95 | SINAR plant response ([12]; Rate 125): 95 | LAMAM plant response ([13]; Rate 31): 60 | LAMAM plant response ([13]; Rate 62): 70 | LAMAM plant response ([13]; Rate 125): 80 | RAPRA plant response ([14]; Rate 31): 60 | RAPRA plant response ([14]; Rate 62): 85 | RAPRA plant response ([14]; Rate 125): 90 | PAPRH plant response ([15]; Rate 31): 85 | PAPRH plant response ([15]; Rate 62): 90 | PAPRH plant response ([15]; Rate 125): 90 | VIOAR plant response ([16]; Rate 31): 60 | VIOAR plant response ([16]; Rate 62): 75 | VIOAR plant response ([16]; Rate 125): 90 | MATIN plant response ([17]; Rate 31): 0 | MATIN plant response ([17]; Rate 62): 5 | MATIN plant response ([17]; Rate 125): 10
